Tests used:
Type in all cases: physicochemical
[1] = pH-potentiometric titration combined with EDTA competition assay; details: estimated
Procedure: The title compound was synthesized in situ by mixing the compound obtained in step 1 with 0.5 molar equiv. Fe2(SO4)3, (i.e., 1 molar equiv. Fe^3+). In one representative sample preparation, used for pH-potentiometry measurements, 7.2 mg (0.011 mmol) Ligand were mixed with 4.4 mg (0.011 mmol Fe) were mixed in 3.4 mL water (with 0.1 M NaCl), and the pH adjusted using 0.1 M NaOH. ESI-MS for [C22H22F6FeN3O7]^−: m/z [M^−]=609.1 (calc.); m/z=609.1(obsv.)
From the titration data (performed in combination with EDTA competition assay at pH 3), a log K=23.7 s estimated for Fe-CDTA-Ph-3,5-CF3.

[2] = T1-relaxivity (r1) as a function of pH
Source text: FIG. 5A compares the pH-dependence on T1-relaxivity (r1; the Fe induced increase in T1 relaxation rate (R1) normalized to Fe concentration in mM) for the structurally related Fe^3+ complexes Fe-CDTA-Ph-3,5-CF3 and Fe-PyCy2AI.
(§1) The term “relaxivity” as used herein, refers to the increase in either of the MR quantities 1/T1 or 1/T2 per millimolar (mM) concentration of paramagnetic ion or contrast agent, which quantities may be different if the contrast agent contains a multiplicity of paramagnetic ions, wherein T1 is the longitudinal or spin-lattice relaxation time, and T2 is the transverse or spin-spin relaxation time of water protons or other imaging or spectroscopic nuclei, including protons found in molecules other than water. Relaxivity is expressed in units of mM^−1s^−1.
FIG. 5, Panel A, compares the pH-dependence on T1-relaxivity (r1; the Fe induced increase in T1 relaxation rate (R1) normalized to Fe concentration in mM) for the structurally related Fe^3+ complexes Fe-CDTA-Ph-3,5-CF3 and Fe-PyCy2AI.

[3] = T1-relaxivity (r1) of Fe3+ versus Fe2+ complex at pH 7.4; details: for relaxivity r1: normalized to Fe concentration, Fe^2+ formed in situ with excess sodium ascorbate
Source text: FIG. 7 compares the relaxivity (r1; the Fe induced increase in T1 relaxation rate (R1) normalized to Fe concentration in mM) recorded for Fe^3+-CDTA-Ph-3,5-CF3 and Fe^2+-CDTA-Ph-3,5-CF3 at pH 7.4.
as §1
FIG. 7 compares the relaxivity (r1; the Fe induced increase in T1 relaxation rate (R1) normalized to Fe concentration in mM) recorded for Fe^3+-CDTA-Ph-3,5-CF3 and Fe^2+-CDTA-Ph-3,5-CF3 at pH 7.4. The Fe^2+ complex was formed in situ by addition of excess sodium ascorbate. The r1 values for the Fe^3+ complex ([…] mM^−1s^−1) is 7.5-times greater than the sister Fe^2+ complex (2.8±0.003 mM^−1s^−1).

Cyclic voltammetry = details: 0.5 M KNO3, GC working, Ag/AgCl reference, Pt counter electrode

log K (Fe^3+ complex stability) ([1]; pH-potentiometric titration in combination with EDTA competition assay at pH 3)	pKa ([1]; water, 0.1 m nacl, pH-potentiometric titration, 1 molar equiv. Fe^3+, read-out: pKa (deprotonation of ML to MLH−1))	speciation at pH 7.4 ([2]; pH 7.4)	r1 (T1-relaxivity), comparison in words ([2]; pH 7.4, compared with Fe-PyC3A / Fe-PyCy2AI)	pKa ([2]; r1 vs pH, read-out: pKa of the Fe^3+ water co-ligand)	ratio of r1 Fe^3+ complex to Fe^2+ complex ([3]; pH 7.4)	relaxivity r1 ([3]; pH 7.4) [mM⁻¹ s⁻¹]	ratio of r1 Fe^3+ complex to Fe^2+ complex (heading of Example 5) ([3]; stated in heading)	oxidation and reduction waves, reversibility (Cyclic voltammetry; pH 3)	separation of oxidation and reduction waves (Cyclic voltammetry; pH 8) [V]	SMILES
23.7	4.9	dominated by the monomeric complex	much greater	> 7.4	7.5 -times	2.1 ± 0.11	10 -fold	reversible oxidation and reduction waves	~1	O=C(O)CN(CC(=O)O)C1CCCCC1N(CC(=O)O)CC(=O)Nc1cc(C(F)(F)F)cc(C(F)(F)F)c1.[Fe+3] (centres unmarked) [Fe-CDTA-Ph-3,5-CF3]
						2.8 ± 0.003				O=C(O)CN(CC(=O)O)C1CCCCC1N(CC(=O)O)CC(=O)Nc1cc(C(F)(F)F)cc(C(F)(F)F)c1.[Fe+2] (centres unmarked) [Fe^2+-CDTA-Ph-3,5-CF3]

Reference: US20260337214A1, “IRON BASED MRI PROBES” (The General Hospital Corporation, priority 2022, published 2026)
